Data: patent publication US7910752B2, “Anticancer compound, intermediate therefor, and processes for producing these” (Taheebo Japan Co., Ltd., priority 2005, dated 2011)
Read-outs that look alike come from different tables or passages of the source.

How the values were obtained:
Format in all cases: cell-based
[1] = test system: MCF-7 cells (Breast cancer cells); assay: Antitumor activity against MCF-7 cells, viable cell count; details: Homo sapiens, MCF7, 72 h
Method: (§1) PC-3 cells obtained in a similar manner in the above (1) are divided into three groups, to the first group of which is added (±)-2-(1-hydroxyethyl)-5-hydroxynaphtho[2,3-b]furan-4,9-dione (racemate) in concentrations of 0.5 mM, 0.05 mM, 0.005 mM and 0.0005 mM, to the second group of which is added an unnatural type 2-(1-hydroxyethyl)-5-hydroxynaphtho[2,3-b]furan-4,9-dione (α-isomer) in concentrations of 0.5 mM, 0.05 mM, 0.005 mM and 0.0005 mM, to the third group of which is added a natural type 2-(1-hydroxyethyl)-5-hydroxynaphtho[2,3-b]furan-4,9-dione (β-isomer) in concentrations of 0.5 mM, 0.05 mM, 0.005 mM and 0.0005 mM, and to the fourth group of which is added mitomycin as a control in concentrations of 0.5 mM, 0.05 mM, 0.005 mM and 0.0005 mM. These groups are incubated at 36° C. for 3 days, and viable cells are counted and viability is calculated.
Antitumor activity is examined on MCF-7 cells in a similar manner as in the above (2).

PC-3 cells = assay: Antitumor activity against PC-3 cells (2), viable cell count; details: Homo sapiens
Method: (§2) PC-3 cells (manufactured by Department of Laboratory Products of Dainippon Pharm. Co. Ltd.) are preliminarily seeded in 35 mm petri dishes containing Dulbecco's modified Eagle medium (DMEM) containing 20% of fetal bovine serum (FBS) in a concentration of 1×10^5/ml. The resulting cells are incubated at 36° C. for 1 day under 5% CO2, and cells are confirmed to be stuck at the bottom of the petri dishes. The resulting PC-3 cells are divided into […], to the first group of which is added (±)-2-(1-hydroxyethyl)-5-hydroxynaphtho[2,3-b]furan-4,9-dione (racemate) in concentrations of 0.5 mM, 0.05 mM and 0.005 mM, and to the second group of which is added adriamycin (Wakenyaku Co. Ltd.) as a control in concentrations of 0.5 mM, 0.05 mM and 0.005 mM. These groups are incubated at 36° C. for 3 days, and viable cells are counted and viability is calculated.
as §1

[2] = test system: Human Skin Normal Cells (Cell System Fb cells); assay: Cytotoxicity assay for human skin normal cells, trypan blue; details: for Viability %: human skin normal cells, 3 days
Method: (§3) Each human normal cells are preliminarily seeded in 35 mm petri dishes containing Dulbecco's modified Eagle medium (DMEM) containing 20% of fetal bovine serum (FBS) in a concentration of 1×10^5/ml. The resulting cells are incubated at 36° C. for 1 day under 5% CO2, and cells are confirmed to be stuck at the bottom of the petri dishes. A racemate, α-isomer and β-isomer are each dissolved in DMSO to give solutions in concentrations of 0.5 mM, 0.05 mM, 0.005 mM and 0.0005 mM, 2 μL each of which are added to each cells. The resulting cells are incubated at 36° C. for 3 days, and viable cells are counted by using 0.25% trypan blue and viabilities are calculated. A commercially-available anticancer agent mitomycin is also examined as a control in the test against human skin normal cells, and the results are also shown in TABLE 6.

[3] = test system: A-549 cells (Lung cancer cells); assay: Antitumor activity against A-549 cells, viable cell count; details: Homo sapiens, A549, 72 h
Method: as §1
Antitumor activity is examined on A-549 cells in a similar manner as in the above (2).

[4] = test system: PC-3 cells (Prostate cancer cells); assay: Antitumor activity against PC-3 cells (1), viable cell count; details: Homo sapiens, PC-3, 72 h
Method: as §2

[5] = test system: Human Lung Normal Cells (MRC-5); assay: Cytotoxicity assay for human lung normal cells, trypan blue; details: 3 days
Method: as §3

[6] = test system: Human Hepatic Normal Cells (Cell Systems Hc Cells); assay: Cytotoxicity assay for human hepatic normal cells, trypan blue; details: 3 days
Method: as §3

[7] = test system: Human Intestinal Normal Cells (Cell Systems IE Cells); assay: Cytotoxicity assay for human intestinal normal cells, trypan blue; details: 3 days
Method: as §3

Structure (SMILES)	Viability % ([2]; 0.0005 mM)	Viability % ([2]; 0.005 mM)	Viability % ([2]; 0.05 mM)	Viability % ([2]; 0.5 mM)	viability at 0.5 µM [1]	viability at 5 µM [1]	viability at 50 µM [1]	viability at 500 µM [1]	Viability % ([5]; 0.0005 mM)	Viability % ([5]; 0.005 mM)	Viability % ([5]; 0.05 mM)	Viability % ([5]; 0.5 mM)	viability at 0.5 µM (PC-3 cells; PC-3, 72 h)	viability at 5 µM (PC-3 cells; PC-3, 72 h)	viability at 50 µM (PC-3 cells; PC-3, 72 h)	viability at 500 µM (PC-3 cells; PC-3, 72 h)	Viability % ([6]; 0.0005 mM)	Viability % ([6]; 0.005 mM)	Viability % ([6]; 0.05 mM)	Viability % ([6]; 0.5 mM)	other results
CO[C@@]12[C@H](COC(N)=O)C3=C(C(=O)C(C)=C(N)C3=O)N1C[C@@H]1N[C@@H]12 [Mitomycin, mitomycin, reference compound]	60%	30%	0%	0%	–	–	–	–	–	–	–	–	–	–	–	–	–	–	–	–	viability at 0.5 µM ([1]; MCF-7 cells, 0.0005 mM, 3 days, read-out: Viability %): 60%; viability at 5 µM ([1]; MCF-7 cells, 0.005 mM, 3 days, read-out: Viability %): 30%; viability at 50 µM ([1]; MCF-7 cells, 0.05 mM, 3 days, read-out: Viability %): 10%; viability at 500 µM ([1]; MCF-7 cells, 0.5 mM, 3 days, read-out: Viability %): 0%; viability at 0.5 µM (PC-3 cells; 72 h, PC-3 cells, 0.0005 mM, 3 days, read-out: Viability %): 40%; viability at 5 µM (PC-3 cells; 72 h, PC-3 cells, 0.005 mM, 3 days, read-out: Viability %): 10%; viability at 50 µM (PC-3 cells; 72 h, PC-3 cells, 0.05 mM, 3 days, read-out: Viability %): 0%; viability at 500 µM (PC-3 cells; 72 h, PC-3 cells, 0.5 mM, 3 days, read-out: Viability %): 0%; toxicity to normal cells ([2]; summary in words of TABLE 6): very strong toxicity; viability at 0.5 µM ([3]; A-549 cells, 0.0005 mM, 3 days, read-out: Viability %): 50%; viability at 5 µM ([3]; A-549 cells, 0.005 mM, 3 days, read-out: Viability %): 10%; viability at 50 µM ([3]; A-549 cells, 0.05 mM, 3 days, read-out: Viability %): 0%; viability at 500 µM ([3]; A-549 cells, 0.5 mM, 3 days, read-out: Viability %): 0%
CC(O)c1cc2c(o1)C(=O)c1cccc(O)c1C2=O (racemic) [Racemate, (±)-2-(1-hydroxyethyl)-5-hydroxynaphtho[2,3-b]furan-4,9-dione]	100%	80%	50%	20%	90%	50%	20%	0%	100%	80%	60%	30%	50%	30%	0%	0%	100%	80%	60%	30%	viability at 5 µM [4]: 50%; viability at 50 µM [4]: 0%; viability at 500 µM [4]: 0%; Viability % ([7]; 0.0005 mM): 100%; Viability % ([7]; 0.005 mM): 80%; Viability % ([7]; 0.05 mM): 60%; Viability % ([7]; 0.5 mM): 40%; viability at 0.5 µM [3]: 70%; viability at 5 µM [3]: 50%; viability at 50 µM [3]: 10%; viability at 500 µM [3]: 0%
COc1cccc2c1C(=O)c1c(O)c3c(c(O)c1C2=O)C[C@@](O)(C(=O)CO)C[C@@H]3O[C@H]1C[C@H](N)[C@H](O)[C@H](C)O1 [Adriamycin, adriamycin, reference compound]	–	–	–	–	–	–	–	–	–	–	–	–	–	–	–	–	–	–	–	–	viability at 5 µM [4]: 42%; viability at 50 µM [4]: 0%; viability at 500 µM [4]: 0%
CC(O)c1cc2c(o1)C(=O)c1cccc(O)c1C2=O (single isomer, unassigned; isomer 2) [β-Isomer, 2-(1-hydroxyethyl)-5-hydroxynaphtho[2,3-b]furan-4,9-dione]	100%	50%	20%	10%	70%	50%	20%	0%	100%	70%	40%	20%	40%	10%	0%	0%	100%	50%	20%	10%	Viability % ([7]; 0.0005 mM): 100%; Viability % ([7]; 0.005 mM): 70%; Viability % ([7]; 0.05 mM): 50%; Viability % ([7]; 0.5 mM): 30%; viability at 0.5 µM [3]: 60%; viability at 5 µM [3]: 30%; viability at 50 µM [3]: 10%; viability at 500 µM [3]: 0%
CC(O)c1cc2c(o1)C(=O)c1cccc(O)c1C2=O (single isomer, unassigned; isomer 2) [α-Isomer, 2-(1-hydroxyethyl)-5-hydroxynaphtho[2,3-b]furan-4,9-dione]	100%	70%	40%	30%	90%	60%	30%	0%	100%	80%	50%	30%	60%	30%	0%	0%	100%	70%	40%	20%	Viability % ([7]; 0.0005 mM): 100%; Viability % ([7]; 0.005 mM): 80%; Viability % ([7]; 0.05 mM): 60%; Viability % ([7]; 0.5 mM): 40%; viability at 0.5 µM [3]: 70%; viability at 5 µM [3]: 40%; viability at 50 µM [3]: 10%; viability at 500 µM [3]: 0%
